Data: patent US20090029995A1, “HETERO BIARYL DERIVATIVES AS MATRIX METALLOPROTEINASE INHIBITORS” (WARNER-LAMBERT COMPANY, priority 2002, published 2009)

Target: T1, MMP-13 catalytic domain (Homo sapiens, UniProt P45452)
T1 construct: use the catalytic domain of the MMP-13 enzyme, namely matrix metalloproteinase-13 catalytic domain (“MMP-13CD”)
Test: MMP-13 catalytic domain inhibition (thiopeptolide substrate hydrolysis)
Type: biochemical
Conditions: read-out: MMP-13CD IC50
Excerpt: The assays measure the amount by which a test compound reduces the hydrolysis of a thiopeptolide substrate catalyzed by a matrix metalloproteinase enzyme. […] One such assay is described below in Biological Method 1.
Some of the particular methods described below use the catalytic domain of the MMP-13 enzyme, namely matrix metalloproteinase-13 catalytic domain (“MMP-13CD”), rather than the corresponding full-length enzyme, MMP-13.
Thiopeptolide substrates show virtually no decomposition or hydrolysis at or below neutral pH in the absence of a matrix metalloproteinase enzyme. A typical thiopeptolide substrate commonly utilized for assays is Ac-Pro-Leu-Gly-thioester-Leu-Leu-Gly-OEt. […] Assays are carried out with and without matrix metalloproteinase inhibitor compounds, and the amount of hydrolysis is compared for a determination of inhibitory activity of the test compounds.

| Molecule | IC50 [nM] |
| --- | --- |
| COc1ccc(-c2cnc(-c3cccc(-c4nnn(Cc5ccc(C(=O)OC(C)(C)C)cc5)n4)c3)o2)cc1 [Example A6, 4-(5-{3-[5-(4-Methoxy-phenyl)-oxazol-2-yl]-phenyl}-tetrazol-2-ylmethyl)-benzoic acid tertiary butyl ester] | 1000 |
| O=C(O)c1ccc(Cn2nnc(-c3cccc(-c4ncc(-c5ccccc5)o4)c3)n2)cc1 [Example A4, 4-{5-[3-(5-Phenyl-oxazol-2-yl)-phenyl]-tetrazol-2-ylmethyl}-benzoic acid] | 400 |
| COc1ccc(-c2cnc(-c3cccc(-c4nnc(-c5ccc(C(=O)O)cc5)o4)c3)o2)cc1 [Example B1, 4-(5-{3-[5-(4-Methoxy-phenyl)-oxazol-2-yl]-phenyl}-[1,3,4]oxadiazol-2-yl)-benzoic acid] | 49000 |
| COc1ccc(-c2cnc(-c3cccc(-c4nnn(Cc5ccc(C(=O)O)cc5)n4)c3)s2)cc1 [Example A9, 4-(5-{3-[5-(4-Methoxy-phenyl)-thiazol-2-yl]-phenyl}-tetrazol-2-ylmethyl)-benzoic acid] | 3.6 |
| [4-(5-{3-[3-(4-Fluoro-phenyl)-prop-1-ynyl]-phenyl}-tetrazol-2-ylmethyl)-phenyl]-phosphonic acid [Example D2] | 13 |
| O=C(O)c1ccc(Cn2nnc(-c3cccc(-c4nnc(-c5ccccc5)o4)c3)n2)cc1 [Example A2, 4-{5-[3-(5-Phenyl-[1,3,4]oxadiazol-2-yl)-phenyl]-tetrazol-2-ylmethyl}-benzoic acid] | > 3000 |
| COc1ccc(-c2cnc(-c3cccc(-c4nnn(Cc5ccc(C(=O)O)cc5)n4)c3)o2)cc1 [Example A7, 4-(5-{3-[5-(4-Methoxy-phenyl)-oxazol-2-yl]-phenyl}-tetrazol-2-ylmethyl)-benzoic acid] | 18 |
| COc1ccc(-c2cnc(-c3cccc(-c4nnc(Cc5ccc(C(=O)O)cc5)s4)c3)o2)cc1 [Example B3, 4-(5-{3-[5-(4-Methoxy-phenyl)-oxazol-2-yl]-phenyl}-[1,3,4]thiadiazol-2-ylmethyl)-benzoic acid] | 14 |
| COc1ccc(-c2cnc(-c3cccc(-c4nnc(Cc5ccc(C(=O)O)cc5)o4)c3)o2)cc1 [Example B2, 4-(5-{3-[5-(4-Methoxy-phenyl)-oxazol-2-yl]-phenyl}-[1,3,4]oxadiazol-2-ylmethyl)-benzoic acid] | 200 |
| O=C(O)c1ccc(Cn2nnc(-c3cccc(-c4nnc(Cc5ccccc5)o4)c3)n2)cc1 [Example A1, 4-{5-[3-(5-Benzyl-[1,3,4]oxadiazol-2-yl)-phenyl]-tetrazol-2-ylmethyl}-benzoic acid] | 440 |
| Fc1ccc(Cn2nnc(-c3cccc(-c4ncc(-c5ccccc5)o4)c3)n2)cc1F [Example A5, 2-(3,4-Difluoro-benzyl)-5-[3-(5-phenyl-oxazol-2-yl)-phenyl]-2H-tetrazole] | 1800 |
| O=C(O)c1ccc(-c2nnc(-c3cccc(C#CCc4ccccc4)c3)o2)cc1 [Example C1, 4-{5-[3-(3-Phenyl-prop-1-ynyl)-phenyl]-[1,3,4]oxadiazol-2-yl}-benzoic acid] | 3400 |
| CC(C)(C)OC(=O)c1ccc(Cn2nnc(-c3cccc(-c4ncc(-c5ccccc5)o4)c3)n2)cc1 [Example A3, 4-{5-[3-(5-Phenyl-oxazol-2-yl)-phenyl]-tetrazol-2-ylmethyl}-benzoic acid tertiary butyl ester] | 1400 |
| COc1ccc(-c2cnc(-c3cccc(-c4nnn(Cc5ccc(F)c(F)c5)n4)c3)o2)cc1 [Example A8, 2-(3,4-Difluoro-benzyl)-5-{3-[5-(4-methoxy-phenyl)-oxazol-2-yl]-phenyl}-2H-tetrazole] | 1300 |

Results, then the molecule that gave them:

| IC50 [nM] | Molecule |
| --- | --- |
| 8.3 | O=C(O)c1ccc(Cn2nnc(-c3cncc(C#CCc4ccc(F)cc4)c3)n2)cc1 [Example H2, 4-(5-{5-[3-(4-Fluoro-phenyl)-prop-1-ynyl]-pyridin-3-yl}-tetrazol-2-ylmethyl)-benzoic acid] |
| 1800 | CC(C#Cc1cccc(-c2nnn(Cc3ccc(C(=O)O)cc3)n2)c1)c1ccccc1 (stereo not shown) [Example G8, 4-{5-[3-(3-Phenyl-but-1-ynyl)-phenyl]-tetrazol-2-ylmethyl}-benzoic acid] |
| 99 | O=C(O)c1ccc(Cn2nnc(-c3cccc(C(=O)NCc4ccncc4)c3)n2)cc1 [Example F1, 4-(5-{3-[(Pyridin-4-ylmethyl)-carbamoyl]-phenyl}-tetrazol-2-ylmethyl)-benzoic acid; compound with trifluoro-acetic acid] |
| 6.4 | O=C(O)c1ccc(Cn2nnc(-c3cccc(C#CCn4ccc(=O)cc4)c3)n2)cc1 [Example G6, 4-(5-{3-[3-(4-Oxo-4H-pyridin-1-yl)-prop-1-ynyl]-phenyl}-tetrazol-2-ylmethyl)-benzoic acid] |
| 160 | O=C(O)c1ccc(Cn2nnc(-c3cncc(C#CCn4ccnc4)c3)n2)cc1 [Example H3, 4-{5-[5-(3-Imidazol-1-yl-prop-1-ynyl)-pyridin-3-yl]-tetrazol-2-ylmethyl}-benzoic acid] |
| 280 | O=C(O)c1ccc(Cn2nnc(-c3cccc(C(=O)NCc4cccnc4)c3)n2)cc1 [Example F2, 4-(5-{3-[(Pyridin-3-ylmethyl)-carbamoyl]-phenyl}-tetrazol-2-ylmethyl)-benzoic acid; compound with trifluoro-acetic acid] |
| 1300 | CCCC(=O)NCc1ccc(Cn2nnc(-c3cccc(C#CCc4ccccc4)c3)n2)cc1 [Example D7, N-(4-{5-[3-(3-Phenyl-prop-1-ynyl)-phenyl]-tetrazol-2-ylmethyl}-benzyl)-butyramide] |
| 29 | O=C(O)c1ccc(Cn2nnc(-c3cccc(C#CCn4cnc(-c5ccccc5)c4)c3)n2)cc1 [Example G7, 4-(5-{3-[3-(4-Phenyl-imidazol-1-yl)-prop-1-ynyl]-phenyl}-tetrazol-2-ylmethyl)-benzoic acid] |
| 6.8 | O=C(O)c1ccc(Cn2nnc(-c3cccc(C#CCn4ccnc4)c3)n2)cc1 [Example G5, 4-{5-[3-(3-Imidazol-1-yl-prop-1-ynyl)-phenyl]-tetrazol-2-ylmethyl}-benzoic acid] |
| 2800 | NCc1ccc(Cn2nnc(-c3cccc(C#CCc4ccccc4)c3)n2)cc1 [Example D6, 4-{5-[3-(3-Phenyl-prop-1-ynyl)-phenyl]-tetrazol-2-ylmethyl}-benzylamine] |
| 86 | O=C(O)c1ccc(Cn2nnc(-c3cccc(C#CCOc4ccc(F)cc4)c3)n2)cc1 [Example G4, 4-(5-{3-[3-(4-Fluoro-phenoxy)-prop-1-ynyl]-phenyl}-tetrazol-2-ylmethyl)-benzoic acid] |
| 330 | CC(=O)NCc1ccc(Cn2nnc(-c3cccc(C#CCc4ccccc4)c3)n2)cc1 [Example D8, N-(4-{5-[3-(3-Phenyl-prop-1-ynyl)-phenyl]-tetrazol-2-ylmethyl}-benzyl)-acetamide] |

Tested on: not given
Test: not given
Conditions: not given

| melting point [°C] | Molecule |
| --- | --- |
| 169 to 170 | COc1ccc(Cn2nnc(-c3cccc(C(=O)NCc4ccccc4)c3)n2)cc1 [Example 17, N-Benzyl-3-[2-(4-methoxy-benzyl)-2H-tetrazol-5-yl]-benzamide] |
| 162 to 163 | COc1ccc(Cn2nnc(-c3cccc(C(=O)NCc4cccc(C(F)(F)F)c4)c3)n2)cc1 [Example 14, 3-[2-(4-Methoxy-benzyl)-2H-tetrazol-5-yl]-N-(3-trifluoromethyl-benzyl)-benzamide] |
| 150 to 151 | COc1ccc(Cn2nnc(-c3cccc(C(=O)NCc4ccc(F)c(Cl)c4)c3)n2)cc1 [Example 13, N-(3-Chloro-4-fluoro-benzyl)-3-[2-(4-methoxy-benzyl)-2H-tetrazol-5-yl]-benzamide] |
| 159 to 160 | COc1ccc(CNC(=O)c2cccc(-c3nnn(Cc4ccc(OC)cc4)n3)c2)cc1 [Example 26, N-(4-Methoxy-benzyl)-3-[2-(4-methoxy-benzyl)-2H-tetrazol-5-yl]-benzamide] |
| 207 to 209 | COc1ccc(Cn2nnc(-c3ccc(OC)c(C(=O)NCc4ccc(C(=O)O)cc4)c3)n2)cc1 [Example 36, 4-({2-Methoxy-5-[2-(4-methoxy-benzyl)-2H-tetrazol-5-yl]-benzoylamino}-methyl)-benzoic acid] |
| 207 to 208 | COc1ccc(Cn2nnc(-c3cccc(C(=O)NCc4ccc5nsnc5c4)c3)n2)cc1 [Example 15, N-2,1,3-Benzothiadiazol-5-ylmethyl-3-[2-(4-methoxy-benzyl)-2H-tetrazol-5-yl]-benzamide] |
| 143 to 145 | COc1ccc(Cn2nnc(-c3cccc(C(=O)NCc4nccs4)c3)n2)cc1 [Example 11, 3-[2-(4-Methoxy-benzyl)-2H-tetrazol-5-yl]-N-thiazol-2-ylmethyl-benzamide] |
| 163 to 164 | COc1ccc(Cn2nnc(-c3cccc(C(=O)NCc4ccncc4)c3)n2)cc1 [Example 18, 3-[2-(4-Methoxy-benzyl)-2H-tetrazol-5-yl]-N-pyridin-4-ylmethyl-benzamide] |
| 222 to 224 | O=C(O)c1ccc(CNC(=O)c2cccc(-c3nnn(Cc4ccc(F)cc4)n3)c2)cc1 [Example 6, 4-({3-[2-(4-Fluoro-benzyl)-2H-tetrazol-5-yl]-benzoylamino}-methyl)-benzoic acid] |
| 107 to 108 | C/C=C/Cn1nnc(-c2cccc(C(=O)NCc3ccc(C(=O)OC)cc3)c2)n1 [Example 10, 4-{[3-(2-But-2-enyl-2H-tetrazol-5-yl)-benzoylamino]-methyl}benzoic acid methyl ester] |
| 153 to 154 | COC(=O)c1ccc(CNC(=O)c2cccc(-c3nnn(Cc4cccc(OC)c4)n3)c2)cc1 [Example 3, 4-({3-[2-(3-Methoxy-benzyl)-2H-tetrazol-5-yl]-benzoylamino}-methyl)-benzoic acid methyl ester] |
